The text below walks through data of patent publication US8461170B2, “Chemical compounds” (Astrazeneca AB, priority 2010, dated 2013).

SMILES strings stand for the structures. Where two headings read alike, the source gives them in different places.

Broadly, the IC50 is the concentration that inhibits the measured activity by half.

The target of this assay is T1, human ALK (Homo sapiens, UniProt Q9UM73).
T1 construct: GST (N); purchased Invitrogen, Carlsbad, Calif; (or prepared by AstraZeneca); host or cells: insect cells
T1 sequence (Q9UM73 1058-1620): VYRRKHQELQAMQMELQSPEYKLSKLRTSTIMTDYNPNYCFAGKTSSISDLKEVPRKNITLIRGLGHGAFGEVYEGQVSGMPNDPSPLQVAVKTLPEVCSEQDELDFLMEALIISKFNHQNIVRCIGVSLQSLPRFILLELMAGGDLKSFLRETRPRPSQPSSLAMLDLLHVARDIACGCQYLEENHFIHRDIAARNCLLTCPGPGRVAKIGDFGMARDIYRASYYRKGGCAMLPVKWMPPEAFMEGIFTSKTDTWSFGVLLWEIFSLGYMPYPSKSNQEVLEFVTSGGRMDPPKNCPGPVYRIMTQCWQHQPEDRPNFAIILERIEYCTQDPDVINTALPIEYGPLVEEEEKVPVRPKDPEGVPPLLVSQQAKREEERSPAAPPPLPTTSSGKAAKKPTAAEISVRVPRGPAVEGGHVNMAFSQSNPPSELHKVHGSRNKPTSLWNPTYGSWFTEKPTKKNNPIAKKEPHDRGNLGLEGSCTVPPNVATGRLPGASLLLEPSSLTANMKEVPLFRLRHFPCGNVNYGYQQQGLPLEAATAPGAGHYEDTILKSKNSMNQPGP
The assay is described as follows: ALK kinase mobility shift assay (Caliper LC3000). The following applies: ATP 30 μM (Km) or 5 mM, not specified which. Type of assay: biochemical. On the procedure:
ALK kinase activity was determined by measuring the kinase's ability to phosphorylate a tyrosine residue within a peptide substrate using a mobility shift assay on a Caliper LC3000 reader (Caliper Life Sciences, Hopkinton, Mass.), which measures fluorescence of the phosphorylated and unphosphorylated substrate and calculates a ratiometric value to determine percent turnover.
To measure ALK kinase activity, the ALK enzyme used was N-terminal GST-tagged, recombinant, human ALK, amino acids 1058-1620 (Genbank Accession number NP_004295) expressed in insect cells and activated in-vitro via autophosphorylation. This was either purchased from a commercially available source (Invitrogen, Carlsbad, Calif.) or prepared by AstraZeneca. The kinase was incubated with a FAM labeled SRCtide substrate (5FAM-GEEPLYWSFPAKKK-NH2, AnaSpec, Fremont, Calif.), 30 μM adenosine triphosphate (ATP, at Km concentration) or 5 mM ATP, 50 mM HEPES buffer (pH 7.3), 1 mM DTT, 0.01% Tween 20, 50 μg/ml BSA and 10 mM MgCl2 for 90 minutes at room temperature. After this time, the kinase reaction was stopped by adding quenching buffer containing final concentrations of 36 mM ethylenediaminetetraacetic acid (EDTA), 65 mM HEPES buffer (pH 7.3), 0.2% Coatin Reagent 3 (Caliper Life Sciences, Hopkinton, Mass.), and 0.003% Tween 20. The reaction was performed in 384 well microtitre plates and the reaction products were detected using the Caliper LC3000 Reader in the presence of separation buffer consisting of 100 mM HEPES (pH 7.3), 15.8 mM EDTA, 0.1% Coatin Reagent 3 (Caliper, Mass.), 0.015% Brij-35, 5% DMSO, and 5.6 mM MgCl2. The separation conditions set up on the Caliper LC3000 were −1.7 PSI, −400V upstream voltage, −2000V downstream voltage, 0.2 second sample sip, 45 second post sip, and 150 seconds final delay. The percentage of inhibition of ALK enzyme activity by compounds were measured based on Max signals (DMSO control) and Min signals (EDTA control) in the plates. Data was graphed and IC50s calculated by IDBS ActivityBase program.

[1] abbreviates: cumulative geometric means including test re-runs, some obtained since the priority filings, read-out: ALK Enzyme IC50 (μM)**.
[2] abbreviates: geometric means of multiple test runs, as presented in the priority filings, read-out: ALK Enzyme IC50 (μM)*.

For `COc1cc(N2CCC(N3CCN(C)CC3)CC2)ccc1Nc1ncc(F)c(-c2c[nH]c3ccccc23)n1` [Example 7, 5-Fluoro-4-(1H-Indol-3-yl)-N-(2-methoxy-4-(4-(4-methylpiperazin-1-yl)piperidin-1-yl)phenyl)pyrimidin-2-amine], the IC50 under setting [1] was 0.079 µM and the IC50 under setting [2] came to 0.041 µM.
Consider `COc1cc(N2CCC(N3CCN(C)CC3)CC2)ccc1Nc1ncc(C(F)(F)F)c(-c2c[nH]c3ccccc23)n1` [Example 8, 4-(1H-Indol-3-yl)-N-(2-methoxy-4-(4-(4-methylpiperazin-1-yl)piperidin-1-yl)phenyl)-5-(trifluoromethyl)pyrimidin-2-amine], for which, under setting [2], the IC50 amounted to 0.061 µM.
Same read-out and setting: as for `COc1cc(N2CCC(N(C)C)CC2)ccc1Nc1ncc(C)c(-c2c[nH]c3ccccc23)n1` [Example 11, N-(4-(4-(Dimethylamino)piperidin-1-yl)-2-methoxyphenyl)-4-(1H-indol-3-yl)-5-methylpyrimidin-2-amine], the figure is 0.086 µM.
In the case of `COc1cc(N2CCC(N(C)C)CC2)ccc1Nc1ncc(Cl)c(-c2c[nH]c3ccccc23)n1` [Example 12, 5-Chloro-N-(4-(4-(dimethylamino)piperidin-1-yl)-2-methoxyphenyl)-4-(1H-indol-3-yl)pyrimidin-2-amine], the IC50 runs as follows: under setting [1], 0.021 µM; under setting [2], 0.023 µM.
In the case of `COc1cc(N2CCC(N(C)C)CC2)ccc1Nc1ncc(F)c(-c2c[nH]c3ccccc23)n1` [Example 13, N-(4-(4-(Dimethylamino)piperidin-1-yl)-2-methoxyphenyl)-5-fluoro-4-(1H-indol-3-yl)pyrimidin-2-amine], the IC50 under setting [2] was determined as 0.05 µM.
Same read-out and setting: as for `COc1cc(N2CCC(N3CCN(C)CC3)CC2)c(C)cc1Nc1ncc(Cl)c(-c2c[nH]c3ccccc23)n1` [Example 14, 5-Chloro-4-(1H-indol-3-yl)-N-(2-methoxy-5-methyl-4-(4-(4-methylpiperazin-1-yl)piperidin-1-yl)phenyl)pyrimidin-2-amine], the figure is 0.024 µM; as for `COc1cc(N2CCC(N3CCN(C)CC3)CC2)c(C)cc1Nc1ncc(C)c(-c2c[nH]c3ccccc23)n1` [Example 15, 4-(1H-Indol-3-yl)-N-(2-methoxy-5-methyl-4-(4-(4-methylpiperazin-1-yl)piperidin-1-yl)phenyl)-5-methylpyrimidin-2-amine], 0.144 µM; as for `COc1cc(N2CCC(N(C)C)CC2)c(C)cc1Nc1ncc(Cl)c(-c2c[nH]c3ccccc23)n1` [Example 16, 5-Chloro-N-(4-(4-(dimethylamino)piperidin-1-yl)-2-methoxy-5-methylphenyl)-4-(1H-indol-3-yl)pyrimidin-2-amine], 0.019 µM.
In the case of `COc1cc(N2CCC(N(C)C)CC2)c(C)cc1Nc1ncc(C)c(-c2c[nH]c3ccccc23)n1` [Example 17, N-(4-(4-(Dimethylamino)piperidin-1-yl)-2-methoxy-5-methylphenyl)-4-(1H-indol-3-yl)-5-methylpyrimidin-2-amine], the IC50 under setting [2] amounted to 0.047 µM.
Turning to `COc1cc(N2CCC(N)CC2)c(C)cc1Nc1ncc(Cl)c(-c2c[nH]c3ccccc23)n1` [Example 18, N-(4-(4-Aminopiperidin-1-yl)-2-methoxy-5-methylphenyl)-5-chloro-4-(1H-indol-3-yl)pyrimidin-2-amine], the IC50 under setting [2] worked out at 0.027 µM.
For `COc1cc(N2CCC(N)CC2)c(C)cc1Nc1ncc(C)c(-c2c[nH]c3ccccc23)n1` [Example 19, N-(4-(4-aminopiperidin-1-yl)-2-methoxy-5-methylphenyl)-4-(1H-indol-3-yl)-5-methylpyrimidin-2-amine], the half-maximal inhibitory concentration (IC50) under setting [2] was 0.052 µM.
Turning to `COc1cc(N2CCC(NCCO)CC2)ccc1Nc1ncc(Cl)c(-c2c[nH]c3ccccc23)n1` [Example 20, 2-(1-(4-(5-Chloro-4-(1H-indol-3-yl)pyrimidin-2-ylamino)-3-methoxyphenyl)piperidin-4-ylamino)ethanol], under setting [2], the IC50 was 0.029 µM.
`COc1cc(N2CCC(N3CCN(S(C)(=O)=O)CC3)CC2)ccc1Nc1ncc(Cl)c(-c2c[nH]c3ccccc23)n1` [Example 21, 5-Chloro-4-(1H-indol-3-yl)-N-(2-methoxy-4-{4-[4-(methylsulfonyl)piperazin-1-yl]piperidin-1-yl}phenyl)pyrimidin-2-amine]: the IC50 under setting [2] came out at 0.235 µM.
Take `COc1cc(N2CCC(N3CC[C@@H](F)C3)CC2)ccc1Nc1ncc(Cl)c(-c2c[nH]c3ccccc23)n1` [Example 22, 5-Chloro-N-(4-{4-[(3R)-3-fluoropyrrolidin-1-yl]piperidin-1-yl}-2-methoxyphenyl)-4-(1H-indol-3-yl)pyrimidin-2-amine]: under setting [2], the half-inhibitory concentration (IC50) is 0.057 µM.
Still for that read-out and setting: as for `COc1cc(N2CCC(N3CCN(C(C)C)CC3)CC2)ccc1Nc1ncc(Cl)c(-c2c[nH]c3ccccc23)n1` [Example 23, 5-Chloro-4-(1H-indol-3-yl)-N-(4-(4-(4-isopropylpiperazin-1-yl)piperidin-1-yl)-2-methoxyphenyl)pyrimidin-2-amine], the figure is 0.028 µM; as for `COc1cc(N2CCC(N3C[C@@H](C)O[C@@H](C)C3)CC2)ccc1Nc1ncc(Cl)c(-c2c[nH]c3ccccc23)n1` [Example 24, 5-Chloro-N-(4-(4-((2S,6R)-2,6-dimethylmorpholino)piperidin-1-yl)-2-methoxyphenyl)-4-(1H-indol-3-yl)pyrimidin-2-amine], 0.14 µM.
On the same count and under the same terms, as for `COc1cc(N2CCC(N3CC[C@@H](F)C3)CC2)c(C)cc1Nc1ncc(Cl)c(-c2c[nH]c3ccccc23)n1` [Example 25, (R)-5-Chloro-N-(4-(4-(3-fluoropyrrolidin-1-yl)piperidin-1-yl)-2-methoxy-5-methylphenyl)-4-(1H-indol-3-yl)pyrimidin-2-amine], the figure is 0.39 µM.
For `COc1cc(N2CCC(NC3COC3)CC2)ccc1Nc1ncc(Cl)c(-c2c[nH]c3ccccc23)n1` [Example 26, 5-Chloro-4-(1H-indol-3-yl)-N-(2-methoxy-4-(4-(oxetan-3-ylamino)piperidin-1-yl)phenyl)pyrimidin-2-amine], the IC50 under setting [2] turned out to be 0.113 µM.
In the case of `COc1cc(N2CCC(N3CCN(C)CC3)CC2)ccc1Nc1ncc(Br)c(-c2c[nH]c3ccccc23)n1` [Example 27], the IC50 under setting [2] is 0.033 µM.
On the same count and under the same terms, as for `COc1cc(N2CCC(N3CCN(C)CC3)CC2)ccc1Nc1ncc(C#N)c(-c2c[nH]c3ccccc23)n1` [Example 28, 4-(1H-Indol-3-yl)-2-(2-methoxy-4-(4-(4-methylpiperazin-1-yl)piperidin-1-yl)phenylamino)pyrimidine-5-carbonitrile], the figure is 0.024 µM.
As to `COc1cc(N2CCC(N(C)C)CC2)ccc1Nc1ncc(C(F)(F)F)c(-c2c[nH]c3ccccc23)n1` [Example 29, N-(4-(4-(dimethylamino)piperidin-1-yl)-2-methoxyphenyl)-4-(1H-indol-3-yl)-5-(trifluoromethyl)pyrimidin-2-amine], the IC50 under setting [2] came to 0.021 µM.
For `COc1cc(N2CCC(N)C(C)(C)C2)ccc1Nc1ncc(Cl)c(-c2c[nH]c3ccccc23)n1` (centres unmarked) [Example 30, N-(4-(4-amino-3,3-dimethylpiperidin-1-yl)-2-methoxyphenyl)-5-chloro-4-(1H-indol-3-yl)pyrimidin-2-amine], the half-inhibitory concentration (IC50) under setting [1] amounted to 0.151 µM and the IC50 under setting [2] was determined as 0.182 µM.
In the case of `CNC1CCN(c2ccc(Nc3ncc(Cl)c(-c4c[nH]c5ccccc45)n3)c(OC)c2)CC1(C)C` (centres unmarked) [Example 31, 5-chloro-N-(4-(3,3-dimethyl-4-(methylamino)piperidin-1-yl)-2-methoxyphenyl)-4-(1H-indol-3-yl)pyrimidin-2-amine], the IC50 came out at 0.136 µM under setting [1] and 0.088 µM under setting [2].
With `COc1cc(N2CCC(N(C)C)C(C)(C)C2)ccc1Nc1ncc(Cl)c(-c2c[nH]c3ccccc23)n1` (centres unmarked) [Example 32, 5-chloro-N-(4-(4-(dimethylamino)-3,3-dimethylpiperidin-1-yl)-2-methoxyphenyl)-4-(1H-indol-3-yl)pyrimidin-2-amine], the IC50 reads like this: under setting [1], 0.356 µM; under setting [2], 0.343 µM.
Regarding `COc1cc(N2CC[C@H](N)[C@H](F)C2)ccc1Nc1ncc(Cl)c(-c2c[nH]c3ccccc23)n1` [Example 33, N-(4-((3R,4S)-4-amino-3-fluoropiperidin-1-yl)-2-methoxyphenyl)-5-chloro-4-(1H-indol-3-yl)pyrimidin-2-amine], the IC50 under setting [1] is 0.03 µM and the IC50 under setting [2] was determined as 0.025 µM.
Turning to `COc1cc(N2CCC(N3CCN(C)CC3)CC2)ccc1Nc1ncc(Cl)c(-c2cn(C)c3ccccc23)n1` [Example 34, 5-Chloro-N-(2-methoxy-4-(4-(4-methylpiperazin-1-yl)piperidin-1-yl)phenyl)-4-(1-methyl-1H-indol-3-yl)pyrimidin-2-amine], under setting [2], the IC50 was 0.148 µM.
